Literature values as cited in patent US6376509B2, “Melanocortin receptor agonists” (Merck & Co., Inc., priority 2000, dated 2002).

Columns and labels:
erectile dysfunction = conditions: for duration of effect / onset of action: after an oral dose; for share of patients with adequate response: oral, men with erectile dysfunction
[1] = tested on: psychogenic erectile dysfunction

Molecule | duration of effect (erectile dysfunction) | onset of action (erectile dysfunction) | share of patients with adequate response (erectile dysfunction) | absorption into the systemic circulation ([1]; in vivo, po) | response rate ([1]; injected intramuscularly or subcutaneously, males with psychogenic erectile dysfunction) | duration of action ([1]; subcutaneous injection) | time to onset of erection ([1]; subcutaneous injection)
Cc1ccc(N(CC2=NCCN2)c2cccc(O)c2)cc1 [phentolamine] | 2 h | 5 to 30 min | 35-40% |  |  |  | 
CCCc1nn(C)c2c(=O)[nH]c(-c3cc(S(=O)(=O)N4CCN(C)CC4)ccc3OCC)nc12 [sildenafil] | about 4 hours | 30 to 60 min | about 70% |  |  |  | 
Ac-Nle-c[Asp-His-DPhe-Arg-Trp-Lys]-NH2 [MT-II] |  |  |  | not absorbed into the systemic circulation | 75% | approximately 2.5 hours | 10 to 20 min
